# Where a name gives a salt, the structure may show the parent alone.
# Experiments:
# Format in all cases: cell-based
# HBV = experiment: Single agent anti-HBV activity, HBV DNA in supernatant by quantitative PCR, HepG2.2.15 cells; conditions: Hepatitis B virus, 192 h, day 8
# Description: (§1) Cell line: HepG2.2.15 cells are constructed and provided by WuXi AppTec. The cell culture medium is DMEM/F12 medium supplemented with 2% fetal bovine serum, 2 mM glutamine, 1×non-essential amino acids, 100 U/mL penicillin and 100 µg/mL streptomycin.
# (§2) 2.1.1 On the first day, HepG2.2.15 cells were seeded into a 96-well cell culture plate at a density of 60,000 cells/well, and then the cells were cultured overnight at 5% CO2 and 37° C. On the second day, the compound 1 and the compound of formula (IIb) and the compound of formula (IIIb) were diluted and added to a 96-well plate. Each combination was a three-fold plate. The cells were cultured under 5% CO2 and 37° C. for 3 days. On the 5th day, a new culture medium containing the compound was replaced, and the supernatant was collected on the 8th day. The HBsAg in the supernatant was detected by ELISA, and the DNA in the supernatant was extracted at the same time, and the content of HBV DNA in the supernatant was detected by quantitative PCR. After collecting the cell supernatant, add CellTiter-Glo to detect cell viability.
# HepG2.2.15 cells [1] = experiment: Cytotoxicity of the compounds in combination, CellTiter Glo
# Description: as §1
# 2.2.1 On the first day, HepG2.2.15 cells were seeded into a 96-well cell culture plate at a density of 60,000 cells/well, and then the cells were cultured overnight at 5% CO2 and 37° C. On the second day, different concentrations of compounds were added to treat the cells. Compounds were diluted in gradients, 7×7 concentration combinations, and 3 replicate plates were tested in parallel. The compound concentration tested for joint activity is based on the EC50 value of each compound. The 7 concentration gradients are approximately: 2×, 1×, ½×, ¼×, ⅛×, 1/16× and 1/32×EC50. The compound concentration of the combined activity test experiment is shown in Table 8, and the combination drug arrangement is shown in Table 9. On the 5th day, replace the fresh culture medium containing the compound. On the 8th day, the culture supernatant was collected, DNA was extracted, and the content of HBV DNA was detected by quantitative PCR. At the same time, CellTiter Glo reagent was used to detect cell viability and MacSynergy software was used to analyze the combined effect of the two drugs.
# HBsAg = experiment: Single agent anti-HBV activity, HBsAg in supernatant by ELISA, HepG2.2.15 cells; conditions: Hepatitis B virus, HepG2.2.15, 192 h, read-out: HBsAg EC50
# Description: as §1, §2
# [2] = Single agent cytotoxicity, CellTiter-Glo; conditions: human, HepG2.2.15 cells
# Description: as §1, §2
# HepG2.2.15 cells [3] = experiment: CellTiter-Glo cytotoxicity of compound 1 / TDF combination
# Description: 1.1 Day 1, HepG2.2.15 cells were seeded into a 96-well cell culture plate at a density of 40,000 cells/well, and then the cells were cultured overnight at 5% CO2 and 37° C.
# 1.2 Day 2, the compound 1 and TDF were combined with 7 different concentrations (selected about 8×, 4×, 2×, 1×, 0.5×, 0.25×, 0.125×EC50 concentration gradient) for orthogonal proportioning, and added to 96-well plate, each combination is 3 double plates, and the final concentration of DMSO is 0.5%.
# 1.3 Day 5, the cell supernatant was discarded, a fresh medium containing the compound was added, and the cells were cultured under 5% CO2, 37° C. for 3 days. On the 8th day, the supernatant from the cell plate treated with the compound was extracted according to the QIAamp 96 DNA Blood Kit (12) instruction.
# MacSynegy software (Prichard et al., 1990) was used to process the HBV DNA copy number test data and analyze the effect parameters of compound 1 and TDF in combination. The CellTiter-Glo kit was used to detect the cytotoxicity of the compounds to HepG2.2.15 cells. According to the kit instructions, use a multifunctional microplate reader to detect the chemiluminescence intensity (RLU) of each cell well.
smiles,measurement,setting,value
COCCCOc1cc2c(cc1OC)-c1cc(=O)c(C(=O)O)cn1[C@H](c1cccs1)O2 [Compound of formula (IIIb)],EC50,HBV,0.78 nM
same,average cell viability percentage,HepG2.2.15 cells [1]; Compound 1 0 nM + formula (IIIb) 0.01875 nM,103.45%
same,average cell viability percentage,HepG2.2.15 cells [1]; Compound 1 0 nM + formula (IIIb) 0.0375 nM,103.81%
same,average cell viability percentage,HepG2.2.15 cells [1]; Compound 1 0 nM + formula (IIIb) 0.075 nM,105.64%
same,average cell viability percentage,HepG2.2.15 cells [1]; Compound 1 0 nM + formula (IIIb) 0.15 nM,105.68%
same,average cell viability percentage,HepG2.2.15 cells [1]; Compound 1 0 nM + formula (IIIb) 0.3 nM,103.14%
same,average cell viability percentage,HepG2.2.15 cells [1]; Compound 1 0 nM + formula (IIIb) 0.6 nM,103.50%
same,average cell viability percentage,HepG2.2.15 cells [1]; Compound 1 0 nM + formula (IIIb) 1.2 nM,112.02%
same,EC50,HBsAg,0.91 nM
same,CC50 at 6 days,[2],> 50 nM
COCCCOc1cc2c(cc1OC)-c1cc(=O)c(C(=O)O)cn1[C@H](C(C)(C)C)CO2 [Compound of formula (IIb)],EC50,HBV,1.52 nM
same,average cell viability percentage,HepG2.2.15 cells [1]; Compound 1 0 nM + formula (IIb) 0.09375 nM,101.23%
same,average cell viability percentage,HepG2.2.15 cells [1]; Compound 1 0 nM + formula (IIb) 0.1875 nM,101.98%
same,average cell viability percentage,HepG2.2.15 cells [1]; Compound 1 0 nM + formula (IIb) 0.375 nM,102.39%
same,average cell viability percentage,HepG2.2.15 cells [1]; Compound 1 0 nM + formula (IIb) 0.75 nM,105.36%
same,average cell viability percentage,HepG2.2.15 cells [1]; Compound 1 0 nM + formula (IIb) 1.5 nM,104.15%
same,average cell viability percentage,HepG2.2.15 cells [1]; Compound 1 0 nM + formula (IIb) 3 nM,102.61%
same,average cell viability percentage,HepG2.2.15 cells [1]; Compound 1 0 nM + formula (IIb) 6 nM,111.27%
same,EC50,HBsAg,4.9 nM
same,CC50 at 6 days,[2],> 1000 nM
"CC(C)OC(=O)OCOP(=O)(CO[C@H](C)Cn1cnc2c(N)ncnc21)OCOC(=O)OC(C)C [TDF, tenofovir disoproxil fumarate, reference compound]",average cell viability percentage,HepG2.2.15 cells [3]; Compound 1 0 nM + TDF 1 nM,103.1%
same,average cell viability percentage,HepG2.2.15 cells [3]; Compound 1 0 nM + TDF 2 nM,101.1%
same,average cell viability percentage,HepG2.2.15 cells [3]; Compound 1 0 nM + TDF 4 nM,103.8%
same,average cell viability percentage,HepG2.2.15 cells [3]; Compound 1 0 nM + TDF 8 nM,116.6%
same,average cell viability percentage,HepG2.2.15 cells [3]; Compound 1 0 nM + TDF 16 nM,111.4%
same,average cell viability percentage,HepG2.2.15 cells [3]; Compound 1 0 nM + TDF 32 nM,111 ± 7.3%
same,average cell viability percentage,HepG2.2.15 cells [3]; Compound 1 0 nM + TDF 64 nM,127 ± 14%

# From patent US12569500B2, “Combination comprising tricycle compound and use thereof in preparation of medicament for treating HBV” (FUJIAN AKEYLINK BIOTECHNOLOGY CO., LTD., priority 2020, dated 2026)
